Assay type in all cases: physicochemical
The nature of one series: UV-Vis spectra. Further details: λmax: unit not given here. The following applies: for λmax: UV-Vis absorption maxima; for log ε: UV-Vis, at the λmax of the same line.
Another series is described as follows: fluorescence spectra. The following applies: fluorescence maximum.
A short description of a further series: ESR spectra. The source says:
Also, the data on g value indicate that the dendritic PC generates radicals.

Where “and” joins values, the source holds several entries; their conditions need not be identical. Equal values may be shown once.

With `c1ccc2c(c1)-c1nc-2nc2[nH]c(nc3nc(nc4[nH]c(n1)c1ccccc41)-c1ccccc1-3)c1ccccc21` [H2—PC], the λmax in “UV-Vis spectra” was 687.50 and 654.00 and 624.50. For the same molecule, the Fmax in “fluorescence spectra” is 625 and 700. Further, in the series “ESR spectra”, the g value was 1.9712 and 2.0245.

For `O=C(O)c1cc2c(cc1C(=O)O)-c1nc-2nc2[n-]c(nc3nc(nc4[n-]c(n1)c1cc(C(=O)O)c(C(=O)O)cc41)-c1cc(C(=O)O)c(C(=O)O)cc1-3)c1cc(C(=O)O)c(C(=O)O)cc21.[Zn+2]` [Zn—PC octacarboxylic acid, Zinc Phthalocyanine (PC) Octacarboxylic Acid], in “UV-Vis spectra”, the λmax is 769.00 and 747.00; the “log ε” value is 4.2560 and 4.2054. Also, in the series “fluorescence spectra”, the Fmax worked out at 780. Moreover, the g value in the series “ESR spectra” was 1.9713 and 2.0245.

With `c1ccc2c(c1)C1=NC2=Nc2c3ccccc3c3[n]2[Zn][n]2c(c4ccccc4c2=NC2=NC(=N3)c3ccccc32)=N1` [Zn—PC], in the series “UV-Vis spectra”, the λmax was 655.50 and 607.00; the “log ε” value is 4.5813 and 4.5391. The same molecule showed an Fmax in “fluorescence spectra” of 715. Also, in “ESR spectra”, the g value was 1.9712 and 2.0245.

Take “Zinc Phthalocyanine Tetracarboxylic Acid [Zn—PC tetracarboxylic acid]”: the λmax in “UV-Vis spectra” is 690.50 and 772.50. This molecule registered an Fmax in “fluorescence spectra” of 805. Also, the g value in the series “ESR spectra” is 2.0245 and 1.9713.

Values taken from US8030342B2, “Dendritic polyamidoamine phthalocyanine derivative” (Nihon University, priority 2006, dated 2011).
